Source: ChEMBL document CHEMBL5537147, “Development of membrane-targeting TPP+-chloramphenicol conjugates to combat methicillin-resistant staphylococcus aureus (MRSA) infections” (Eur J Med Chem, 2024)
Activity calls are given as the source filed them. The rule behind the calls is not given here.

Tests used:
Acinetobacter baumannii [1] = assay: Antibacterial activity against Acinetobacter baumannii 1309 assessed as inhibition of bacterial growth incubated for 16 to 18 hrs by CLSI based two-fold serial dilution method; format: functional; conditions: time 16-18 hrs
Acinetobacter baumannii [2] = assay: Antibacterial activity against Acinetobacter baumannii 1310 assessed as inhibition of bacterial growth incubated for 16 to 18 hrs by CLSI based two-fold serial dilution method; format: functional; conditions: time 16-18 hrs
Pseudomonas aeruginosa [3] = assay: Antibacterial activity against Pseudomonas aeruginosa 408 assessed as inhibition of bacterial growth incubated for 16 to 18 hrs by CLSI based two-fold serial dilution method; format: functional; conditions: time 16-18 hrs
Pseudomonas aeruginosa [4] = assay: Antibacterial activity against Pseudomonas aeruginosa 535 assessed as inhibition of bacterial growth incubated for 16 to 18 hrs by CLSI based two-fold serial dilution method; format: functional; conditions: time 16-18 hrs
[5] = Cytotoxicity against human L02 cells assessed as inhibition of cell growth incubated for 24 hrs by MTT assay; format: toxicity, cell-based
[6] = Toxicity in ICR mouse infected with methicillin-resistant Staphylococcus aureus USA300 assessed as reduction in body weight at 20 mg/kg, sc administered as dual dose and measured after 3 days; format: organism-based; conditions: in vivo, 72 h, time 3 day
Staphylococcus aureus [7] = assay: Antibacterial activity against methicillin-resistant Staphylococcus aureus 330041 assessed as inhibition of bacterial growth incubated for 16 to 18 hrs by CLSI based two-fold serial dilution method; format: functional; conditions: time 16-18 hrs
Staphylococcus aureus [8] = assay: Antibacterial activity against methicillin-resistant Staphylococcus aureus 3390 assessed as inhibition of bacterial growth incubated for 16 to 18 hrs by CLSI based two-fold serial dilution method; format: functional; conditions: time 16-18 hrs
Staphylococcus aureus [9] = assay: Antibacterial activity against methicillin-resistant Staphylococcus aureus 3392 assessed as inhibition of bacterial growth incubated for 16 to 18 hrs by CLSI based two-fold serial dilution method; format: functional; conditions: time 16-18 hrs
Staphylococcus aureus [10] = assay: Antibacterial activity against methicillin-resistant Staphylococcus aureus USA300 assessed as inhibition of bacterial growth incubated for 16 to 18 hrs by CLSI based two-fold serial dilution method; format: functional; conditions: time 16-18 hrs
Staphylococcus aureus [11] = assay: Antibacterial activity against methicillin-resistant Staphylococcus aureus USA300 infected in ICR mouse assessed as reduction in bacterial load in infected thigh at 10 mg/kg, sc pre-infected with bacteria for 2 hrs followed by compound administration as dual dose and measured after 3 days; format: functional, organism-based; conditions: time 3.0 day
HEK-293T = assay: Cytotoxicity against HEK293T cells assessed as effect on cell viability at 35 ug/ml incubated for 24 hrs by MTT assay; format: toxicity, cell-based; conditions: human, dose 35 µg/ml
Erythrocyte [12] = assay: Hemolytic activity in sheep RBC at 20 ug/ml incubated for 1 hr by absorbance based analysis; format: toxicity, cell-based, Ovis aries; conditions: dose 20 µg/ml
Staphylococcus aureus [13] = assay: Bactericidal against methicillin-resistant Staphylococcus aureus USA300 assessed as elimination of bacterial colonies at 16 ug/ml measured within 3 hrs by time kill assay relative to control; format: functional; conditions: dose 16 µg/ml
Staphylococcus aureus [14] = assay: Bactericidal against methicillin-resistant Staphylococcus aureus USA300 assessed as reduction in bacterial colonies at 32 ug/ml measured upto 7 hrs by time kill assay; format: functional, organism-based; conditions: dose 32.0 µg/ml
Staphylococcus aureus [15] = assay: Bactericidal against methicillin-resistant Staphylococcus aureus USA300 assessed as total eradication of bacterial colonies at 1 to 2 times MIC measured upto 7 hrs by time kill assay; format: functional, organism-based
Staphylococcus aureus [16] = assay: Resistance development in methicillin-resistant Staphylococcus aureus USA300 assessed as increase in MIC measured after 15 passages; format: functional, organism-based
Cell membrane [17] = assay: Induction of cell membrane damage in methicillin-resistant Staphylococcus aureus USA300 assessed as appearance of wrinkles in cell surface at 8 ug/ml measured after 0.5 hrs by SEM analysis; format: cell membranes; conditions: dose 8.0 µg/ml
Cell membrane [18] = assay: Induction of cell membrane damage in methicillin-resistant Staphylococcus aureus USA300 assessed as disruption of cell membrane at 8 ug/ml measured after 0.5 hrs by SEM analysis; format: cell membranes; conditions: dose 8.0 µg/ml
Cell membrane [19] = assay: Disruption of cell membrane integrity in methicillin-resistant Staphylococcus aureus USA300 assessed as increase in fluorescence intensity measured after 0 to 100 mins by SYTOX Green staining based analysis; format: cell membranes; conditions: dose 2-32 µg/ml, time 0-100 min
Staphylococcus aureus [20] = assay: Antibacterial activity against methicillin-resistant Staphylococcus aureus USA300 infected in ICR mouse assessed as reduction in bacterial load in infected thigh at 20 mg/kg, sc pre-infected with bacteria for 2 hrs followed by compound administration as dual dose and measured after 3 days; format: functional, organism-based; conditions: time 3.0 day
Erythrocyte [21] = assay: Hemolytic activity in sheep RBC at 30 ug/ml incubated for 1 hr by absorbance based analysis; format: toxicity, cell-based, Ovis aries; conditions: dose 30 µg/ml
Staphylococcus aureus [22] = assay: Bactericidal against methicillin-resistant Staphylococcus aureus USA300 assessed as elimination of bacterial colonies at 16 ug/ml measured within 5 hrs by time kill assay relative to control; format: functional; conditions: dose 16 µg/ml
Cell membrane [23] = assay: Induction of cell membrane damage in methicillin-resistant Staphylococcus aureus USA300 assessed as appearance of wrinkles in cell surface at 16 ug/ml measured after 0.5 hrs by SEM analysis; format: cell membranes; conditions: dose 16.0 µg/ml
Cell membrane [24] = assay: Induction of cell membrane damage in methicillin-resistant Staphylococcus aureus USA300 assessed as disruption of cell membrane at 16 ug/ml measured after 0.5 hrs by SEM analysis; format: cell membranes; conditions: dose 16.0 µg/ml
Cell membrane [25] = assay: Disruption of cell membrane integrity in methicillin-resistant Staphylococcus aureus USA300 assessed as increase in fluorescence intensity measured after 0 to 30 mins by SYTOX Green staining based analysis; format: cell membranes; conditions: dose 2-16 µg/ml, time 0-30 min
[26] = Toxicity in ICR mouse infected with methicillin-resistant Staphylococcus aureus USA300 assessed as reduction in body weight at 10 mg/kg, sc administered as dual dose and measured after 3 days; format: organism-based; conditions: in vivo, 72 h, time 3 day

Row | Compound | MIC (Acinetobacter baumannii [1]) | MIC (Acinetobacter baumannii [2]) | MIC (Pseudomonas aeruginosa [3]) | MIC (Pseudomonas aeruginosa [4]) | IC50 at 24 h [5] | MIC (Staphylococcus aureus [7]) | MIC (Staphylococcus aureus [8]) | MIC (Staphylococcus aureus [9]) | MIC (Staphylococcus aureus [10]) | also measured
1 | CN[C@H](CC(C)C)C(=O)N[C@H]1C(=O)N[C@@H](CC(N)=O)C(=O)N[C@H]2C(=O)N[C@H]3C(=O)N[C@H](C(=O)N[C@H](C(=O)O)c4cc(O)cc(O)c4-c4cc3ccc4O)[C@H](O)c3ccc(c(Cl)c3)Oc3cc2cc(c3O[C@@H]2O[C@H](CO)[C@@H](O)[C@H](O)[C@H]2O[C@H]2C[C@](C)(N)[C@H](O)[C@H](C)O2)Oc2ccc(cc2Cl)[C@H]1O [VANCOMYCIN] | > 64 µg/mL | > 64 µg/mL | > 64 µg/mL | > 64 µg/mL | > 64 µg/mL | – | – | – | – | Activity [6]: Non-Toxic
2 | O=C(N[C@H](CO)[C@H](O)c1ccc([N+](=O)[O-])cc1)C(Cl)Cl [CHLORAMPHENICOL] | > 64 µg/mL | > 64 µg/mL | > 64 µg/mL | > 64 µg/mL | > 64 µg/mL | > 64 µg/mL | > 64 µg/mL | > 64 µg/mL | > 64 µg/mL | Activity (Staphylococcus aureus [11]): inactive; Activity [6]: Non-Toxic
3 | Br.O=C(CCC[P+](c1ccccc1)(c1ccccc1)c1ccccc1)OC[C@H](NC(=O)C(Cl)Cl)[C@H](O)c1ccc([N+](=O)[O-])cc1 | > 64 µg/mL | > 64 µg/mL | > 64 µg/mL | > 64 µg/mL | > 64 µg/mL | 32 µg/mL | 32 µg/mL | 32 µg/mL | 16 µg/mL | –
4 | Br.COc1cccc([P+](CCCCCCCCCC(=O)OC[C@H](NC(=O)C(Cl)Cl)[C@H](O)c2ccc([N+](=O)[O-])cc2)(c2cccc(OC)c2)c2cccc(OC)c2)c1 | > 64 µg/mL | > 64 µg/mL | 4 µg/mL | 16 µg/mL | 21.7 µg/mL | 1 µg/mL | 2 µg/mL | 1 µg/mL | 1 µg/mL | –
5 | O=C(O)CCCCC[P+](c1ccccc1)(c1ccccc1)c1ccccc1.[Br-] | > 64 µg/mL | > 64 µg/mL | > 64 µg/mL | > 64 µg/mL | > 64 µg/mL | > 64 µg/mL | > 64 µg/mL | > 64 µg/mL | > 64 µg/mL | –
6 | Br.O=C(CCCCCCCCC[P+](c1cccc(F)c1)(c1cccc(F)c1)c1cccc(F)c1)OC[C@H](NC(=O)C(Cl)Cl)[C@H](O)c1ccc([N+](=O)[O-])cc1 | > 64 µg/mL | > 64 µg/mL | > 64 µg/mL | > 64 µg/mL | 28.7 µg/mL | 1 µg/mL | 1 µg/mL | 1 µg/mL | 1 µg/mL | –
7 | O=C(O)CCCCCCC[P+](c1ccccc1)(c1ccccc1)c1ccccc1.[Br-] | > 64 µg/mL | > 64 µg/mL | > 64 µg/mL | > 64 µg/mL | > 64 µg/mL | > 64 µg/mL | > 64 µg/mL | > 64 µg/mL | > 64 µg/mL | –
8 | Br.O=C(CCCCCCCCC[P+](c1ccccc1)(c1ccccc1)c1ccccc1)OC[C@H](NC(=O)C(Cl)Cl)[C@H](O)c1ccc([N+](=O)[O-])cc1 | > 64 µg/mL | 32 µg/mL | > 64 µg/mL | > 64 µg/mL | > 32 µg/mL | 1 µg/mL | 1 µg/mL | 1 µg/mL | 1 µg/mL | Activity (HEK-293T): Non-Toxic; Activity (Erythrocyte [12]): Non-Toxic; Activity (Staphylococcus aureus [13]): 100%; Activity (Staphylococcus aureus [14]): Active; Activity (Staphylococcus aureus [15]): inactive; Activity (Staphylococcus aureus [16]): inactive; Activity (Cell membrane [17]): Active; Activity (Cell membrane [18]): Active; Activity (Cell membrane [19]): Dose-Dependent Effect; Activity (Staphylococcus aureus [20]): Active; Activity [6]: Non-Toxic
9 | Br.O=C(CCCCCCCCC[P+](c1ccc(F)cc1)(c1ccc(F)cc1)c1ccc(F)cc1)OC[C@H](NC(=O)C(Cl)Cl)[C@H](O)c1ccc([N+](=O)[O-])cc1 | > 64 µg/mL | > 64 µg/mL | > 64 µg/mL | > 64 µg/mL | > 64 µg/mL | 1 µg/mL | 2 µg/mL | 2 µg/mL | 2 µg/mL | Activity (HEK-293T): Non-Toxic; Activity (Erythrocyte [21]): Non-Toxic; Activity (Staphylococcus aureus [22]): 100%; Activity (Staphylococcus aureus [14]): Active; Activity (Staphylococcus aureus [15]): inactive; Activity (Staphylococcus aureus [16]): inactive; Activity (Cell membrane [23]): Active; Activity (Cell membrane [24]): Active; Activity (Cell membrane [25]): Dose-Dependent Effect; Activity (Staphylococcus aureus [11]): inactive; Activity [26]: Non-Toxic
10 | CN(C)c1ccc([P+](CCCCCCCCCC(=O)O)(c2ccc(N(C)C)cc2)c2ccc(N(C)C)cc2)cc1.[Br-] | 32 µg/mL | 32 µg/mL | 16 µg/mL | 32 µg/mL | 2.1 µg/mL | 8 µg/mL | 8 µg/mL | 16 µg/mL | 4 µg/mL | –
11 | O=C(O)CCC[P+](c1ccccc1)(c1ccccc1)c1ccccc1.[Br-] | > 64 µg/mL | > 64 µg/mL | > 64 µg/mL | > 64 µg/mL | > 64 µg/mL | > 64 µg/mL | > 64 µg/mL | > 64 µg/mL | > 64 µg/mL | –
12 | COc1ccc([P+](CCCCCCCCCC(=O)O)(c2ccc(OC)cc2)c2ccc(OC)cc2)cc1.[Br-] | 64 µg/mL | 64 µg/mL | > 64 µg/mL | > 64 µg/mL | 13.5 µg/mL | 32 µg/mL | 16 µg/mL | 32 µg/mL | 32 µg/mL | –
